Experimental findings from PubChem BioAssay (NCI) are described below.

Among the test systems are U251 CNS; OVCAR-4 ovarian; SF-295 CNS; OVCAR-3 ovarian; NCI-H226 lung; UACC-257 melanoma; HCT-15 colon; HCC-2998 colon; SK-MEL-28 melanoma.
Assay in all cases: growth of human tumour cells (NCI), 48 h

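Protocol summary: plate cells (96-well), add compound at 5 concentrations, incubate 48 h, interpolate endpoints linearly. GI50 = concentration required for 50% inhibition of growth. TGI is the concentration that stops growth completely.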

Regarding `Cc1c(C(Cc2ccccc2N(C)C(=O)/C=C\C(=O)O)c2c[nH]c3ccccc23)c2ccccc2n1C` (configuration not stated), the TGI in the assay on U251 CNS is 30.3 µM; in the assay with OVCAR-4 ovarian, 55.5 µM; in the assay on SF-295 CNS it was 28.8 µM; in the assay on OVCAR-3 ovarian, 27.7 µM; in the assay on NCI-H226 lung, 43 µM; with UACC-257 melanoma, 31.5 µM. Also, the TGI in the assay on HCT-15 colon stood at 29.3 µM; in the assay on HCC-2998 colon, 30.9 µM.
`N#CC(C(=O)CCCC(=O)Nc1ccccc1[N+](=O)[O-])c1c(Cl)cccc1Cl` (configuration not stated): the TGI in the assay with U251 CNS, in the assay on OVCAR-4 ovarian, with SF-295 CNS, in the assay on SK-MEL-28 melanoma, with OVCAR-3 ovarian and in the assay on NCI-H226 lung was above 100 µM in each case. Also, the TGI with UACC-257 melanoma, in the assay with HCT-15 colon and in the assay with HCC-2998 colon was above 100 µM throughout.
For the compound `CC(=O)OC(C)(C)C1CC[C@]2(C)/C=C/C(C)C[C@@H](O)/C=C(\C)CC(O)C12` (some centres not stated), the TGI in the assay on U251 CNS, with OVCAR-4 ovarian, in the assay on SF-295 CNS, with SK-MEL-28 melanoma, in the assay with OVCAR-3 ovarian and in the assay on NCI-H226 lung was above 100 µM each time. Moreover, the TGI in the assay with UACC-257 melanoma, in the assay on HCT-15 colon and in the assay on HCC-2998 colon was above 100 µM each time.
On to `Cc1cc(N(CCC#N)CCC#N)ccc1/C=C(\NC(=O)/C=C/c1ccccc1)C(=O)N=[N+]=[N-]`, for which the TGI with U251 CNS, in the assay on SF-295 CNS, with SK-MEL-28 melanoma, in the assay with OVCAR-3 ovarian, in the assay with NCI-H226 lung and in the assay on UACC-257 melanoma was above 100 µM each time. The TGI in the assay on HCT-15 colon and with HCC-2998 colon was above 100 µM each time.
For the compound `CC(=O)N1C/C(=C\c2ccccc2)C(=O)/C(=C/c2ccccc2)C1`, the TGI with U251 CNS is 29.7 µM; with OVCAR-4 ovarian it was 33.2 µM; in the assay on SF-295 CNS, 26.9 µM; in the assay with SK-MEL-28 melanoma it was 27.5 µM; in the assay on OVCAR-3 ovarian, 16.4 µM; in the assay on NCI-H226 lung, 35.5 µM. In addition, the TGI with UACC-257 melanoma is 18.6 µM; in the assay on HCT-15 colon it was 23.7 µM; in the assay with HCC-2998 colon, 25 µM.
Take `COc1ccc(C2COc3c(ccc(OC)c3OC)C2=O)cc1OC` (configuration not stated): the TGI in the assay with U251 CNS, in the assay with OVCAR-4 ovarian, in the assay with SF-295 CNS, in the assay on SK-MEL-28 melanoma, in the assay on OVCAR-3 ovarian and in the assay on NCI-H226 lung was above 100 µM each time. Also, the TGI in the assay on UACC-257 melanoma and with HCC-2998 colon was above 100 µM each time.
Turning to `CCN(CC)CC(=O)NC1c2ccccc2Oc2ccccc21`, the TGI in the assay on U251 CNS, in the assay with OVCAR-4 ovarian, in the assay with SK-MEL-28 melanoma, with NCI-H226 lung, in the assay on UACC-257 melanoma and in the assay on HCT-15 colon was above 100 µM each time. Besides, the TGI in the assay on HCC-2998 colon is above 100 µM.
In the case of `O=C1C2C3CC4C5C3C1C5C1(SCCS1)C42` (configuration not stated), the TGI in the assay on U251 CNS, in the assay on OVCAR-4 ovarian, with SK-MEL-28 melanoma, in the assay on NCI-H226 lung, in the assay with UACC-257 melanoma and in the assay on HCT-15 colon was above 100 µM throughout. In the assay on HCC-2998 colon, this compound showed a TGI above 100 µM.
On to `COC(=O)C(=O)C(C#N)c1nc2ccccc2s1` (configuration not stated), for which the TGI with OVCAR-4 ovarian, with SF-295 CNS, in the assay on SK-MEL-28 melanoma, in the assay with OVCAR-3 ovarian, in the assay on NCI-H226 lung and in the assay with UACC-257 melanoma was above 100 µM in each case. In addition, the TGI in the assay with HCT-15 colon and with HCC-2998 colon was above 100 µM each time.
With `O=C([CH-]C(=O)c1ccccc1)c1ccccc1.O=C([CH-]C(=O)c1ccccc1)c1ccccc1.O=C([CH-]C(=O)c1ccccc1)c1ccccc1.[Ga+3]`, the GI50 is 23.3 µM with U251 CNS; 64.7 µM with OVCAR-4 ovarian; 38.7 µM in the assay on SF-295 CNS; above 100 µM in the assay with SK-MEL-28 melanoma; above 100 µM in the assay on OVCAR-3 ovarian; 26.1 µM in the assay on NCI-H226 lung. Further, in the assay on UACC-257 melanoma, the GI50 was 93.3 µM. Further, the TGI with U251 CNS, in the assay with OVCAR-4 ovarian, with SF-295 CNS, with SK-MEL-28 melanoma, with OVCAR-3 ovarian and in the assay with NCI-H226 lung was above 100 µM throughout. In addition, the TGI with UACC-257 melanoma was above 100 µM.
For `CC(=O)C1(O)CC2(c3ccccc3)C(=O)C1(c1ccccc1)C(c1ccccc1)=C2c1ccccc1` (configuration not stated), the TGI with U251 CNS, with OVCAR-4 ovarian, in the assay on SF-295 CNS, with OVCAR-3 ovarian, in the assay on NCI-H226 lung and with UACC-257 melanoma was above 100 µM throughout. In addition, in the assay on HCT-15 colon, the TGI is above 100 µM.
In the case of `COc1nc(NC2OC(COC(C)=O)C(OC(C)=O)C(OC(C)=O)C2OC(C)=O)c(N=CC=Nc2c(NC3OC(COC(C)=O)C(OC(C)=O)C(OC(C)=O)C3OC(C)=O)nc(OC)[nH]c2=O)c(=O)[nH]1` (configuration not stated), the TGI in the assay with U251 CNS, in the assay with OVCAR-4 ovarian, in the assay on SF-295 CNS, with SK-MEL-28 melanoma, in the assay on OVCAR-3 ovarian and in the assay with NCI-H226 lung was above 100 µM each time. In addition, the TGI with UACC-257 melanoma and in the assay on HCC-2998 colon was above 100 µM throughout.
